These results are taken from patent US11104670B2, “4-pyrimidin-5-ylmethyl-morpholine derivatives and the use thereof as medicament” (Boehringer Ingelheim International GmbH, priority 2018, dated 2021).

Common to all, as to assay type: cell-based
Assay [1] addresses NMDA NR1/NR2B receptor (Homo sapiens (Human), UniProt Q13224). The assay is described as follows: NMDA NR1/NR2B FLIPR calcium assay in HEK293 cells. Particulars: glycine/glutamate-induced calcium, read-out: IC50, in vitro NR2B affinity in the FLIPR assay. The procedure:
(§1) A human HEK293 cell line with tetracyclin-inducible expression of NMDA NR1/NR2B receptor was used as a test system for compound efficacy and potency. The cell line was purchased from ChanTest, Catalog #CT6121. Compound activity was determined by measuring the effect of compounds on intracellular calcium concentration induced by glycine/glutamate agonism in a FLIPRtetra system (Molecular Devices).
(§2) The cells were obtained as frozen cells in cryo-vials and stored until use at −150° C. Cells were grown in culture medium (DMEM/F12, 10% FBS, 5 μg/mL Blasticidin, 150 μg/mL Zeozin, 500 μg/mL Geneticin). […] For sub-culturing the cells were detached from flasks by Versene. For the assay, cells were detached, washed twice with induction medium (DMEM/F12 without glutamine, 10% FBS, 2 μg/mL Tetracycline, 2 mM Ketamine) and seeded to 384 well pure coat amine plates (Becton Dickinson, 50000 cells per well in 50 μl) 48 h prior to assay in induction medium.
(§3) The test compounds were dissolved in 100% DMSO at a concentration of 10 mM and in a first step diluted in DMSO to a concentration of 5 mM, followed by serial dilution steps in 100% DMSO. Dilution factor and number of dilution steps may vary according to needs. Typically 8 different concentrations by 1:5 dilutions were prepared in duplicate, further intermediate dilutions (1:37.5) of the substances were carried out with aqueous assay buffer (137 mM NaCl, 4 mM KCl, 1.8 mM CaCl2), 10 mM HEPES, 10 mM Glucose, pH 7.4) resulting in a compound concentration 3 times above the final test concentration and DMSO at 2.7% resulting in 0.9% final DMSO concentration in the assay.
(§4) At the assay day cells were washed 3× with assay buffer (as described above), 10 μL buffer remained in the wells after washing. 10 μL Ca kit loading buffer (AAT Bioquest; prepared from the kit containing the following components: Component A: Fluo-8 NW dissolved in 200 μL DMSO and 20 μl of this solution are mixed with 10 ml buffer prepared out of component B and C, Component B: 10× Pluronic® F127 Plus diluted 1:10 in component C, Component C: HHBS (Hanks with 20 mM Hepes) was added to the cells and the plates were incubated with lid for 60 minutes at room temperature. 20 μl assay buffer containing 60 μM glycine (20 μM final) and 3 μM glutamate (1 μM final) was added to column 1-23, column 24 got assay buffer without glycine/glutamate to serve as negative unstimulated control. Fluorescence (indicating the calcium influx as a result of the NR1/NR2B ion channel activation) was read on the FLIPRtetra device for 60 seconds to monitor the glutamate induced effects. After 2 minutes 20 μL of compound dilution prepared as described above or controls (row 1-22) in assay buffer were carefully added to the wells. […] The average of 2 measurements at 5 minutes and 5 min 10 seconds after compound addition is calculated and further used for IC50 calculations. Each assay microtiter compound dilution plate contained wells (in column 23 or 24) with DMSO controls instead of compound as controls for glycine/glutamate induced fluorescence (high controls) and wells with 1 μM of a reference NR2B NAM as low controls (Compound 22; reference: Layton, Mark E et al, ACS Chemical Neuroscience 2011, 2(7), 352-362).
(§5) The output file of the reader contains the well number and measured average fluorescence units. For data evaluation and calculation, the measurement of the low control was set as 0% control and the measurement of the high control was set as 100% control. The IC50 values were calculated using the standard 4 parameter logistic regression formula. Calculation: [y=(a−d)/(1+(x/c)^b)+d], a=low value, d=high value; x=conc M; c=IC50 M; b=slope.

For the next assay, the target named is Nav1.6 channel (Homo sapiens (Human), UniProt Q9UQD0). The assay is described as follows: Nav1.6 inhibition, IonWorks Quattro electrophysiology. The settings on record: for inhibition at 1 µM / Normalized % inhibition at 5 μM / inhibition at 5 µM: normalized to vehicle (0%) and maximal inhibition control (100%). The procedure:
Ion Works Quattro electrophysiological platform
The compounds were prepared in DMSO at 300× the final assay concentrations of 1 and 5 μM.
The 300× DMSO stock solutions were transferred into assay plates where 2 μl per well of each 300× stock solution were placed. All assay plates were stored at −80° C. until the day of assay.
On the day of the assay, the appropriate assay plate was thawed at room temperature, centrifuged, and 198 μl of external recording solution was added and mixed thoroughly. This provided a 1:100 dilution. A further 1:3 dilution occurred upon addition to the cells in the IonWorks Quattro electrophysiological platform, giving a 1:300 dilution in total.
On each assay plate, at least 8 wells were reserved for vehicle control (0.3% DMSO) and at least 8 wells for each positive control specific to the cell line tested. The positive controls were tested at a maximal blocking and an approximate IC50 concentration. As positive control Lidocaine at concentrations of 30 and 1000 μM was used.
Amphotericin B was used to obtain electrical access to the cell interior at a final concentration of 200 μg/ml in internal recording solution.
State-dependent inhibition: Sodium channels when held at depolarized potential or long test pulse, the channels open and inactivate and then stay inactivated until the membrane potential is stepped back to hyperpolarized potentials, when the inactivated channels recover from inactivation into closed state.
Cells were held at −120 mV. In order to completely inactivate the sodium channels (pulse 1), the cells were pulsed to +0 mV for 2500 ms and stepped back to −120 mV for 10 ms (to completely recover from inactivation, however channels that had drugs bound to them will not recover from inactivation) before stepping to +0 mV for 20 ms (pulse 2).
Both the positive and vehicle control data associated with each cell line assayed are shown below as an example. The mean is shown for each positive and negative control as solid symbol with the total number of individual well replicates given next to the solid symbol. In addition, the individual data of each well are shown on the graph as open symbols so that the variation about the mean value can be readily assessed.
In FIG. 2, a Post/Pre value of 1.0 corresponds to 0% inhibition, a Post/Pre value of 0.0 corresponds to 100% inhibition.
Tables 3 and 4 show the normalized percentage inhibition of Nav1.6 channel. […] (see also the figure Assay Control Results above).
(In general: Patch clamp records ionic current or voltage across a cell membrane.)

Assay [2] deals with NMDA NR1/NR2B receptor (Homo sapiens (Human), UniProt Q05586+Q13224). As to the kind of experiment: NMDA NR1/NR2B FLIPR calcium assay in HEK293 cells. The settings on record: glycine/glutamate-induced calcium, read-out: IC50, in vitro NR2B affinity in the FLIPR assay. Here is the method: as §1, §2, §3, §4, §5
NMDA NR1/NR2B receptor (Homo sapiens (Human), UniProt Q05586+Q13224), sequence (Q13224 27-1484, other chains not shown): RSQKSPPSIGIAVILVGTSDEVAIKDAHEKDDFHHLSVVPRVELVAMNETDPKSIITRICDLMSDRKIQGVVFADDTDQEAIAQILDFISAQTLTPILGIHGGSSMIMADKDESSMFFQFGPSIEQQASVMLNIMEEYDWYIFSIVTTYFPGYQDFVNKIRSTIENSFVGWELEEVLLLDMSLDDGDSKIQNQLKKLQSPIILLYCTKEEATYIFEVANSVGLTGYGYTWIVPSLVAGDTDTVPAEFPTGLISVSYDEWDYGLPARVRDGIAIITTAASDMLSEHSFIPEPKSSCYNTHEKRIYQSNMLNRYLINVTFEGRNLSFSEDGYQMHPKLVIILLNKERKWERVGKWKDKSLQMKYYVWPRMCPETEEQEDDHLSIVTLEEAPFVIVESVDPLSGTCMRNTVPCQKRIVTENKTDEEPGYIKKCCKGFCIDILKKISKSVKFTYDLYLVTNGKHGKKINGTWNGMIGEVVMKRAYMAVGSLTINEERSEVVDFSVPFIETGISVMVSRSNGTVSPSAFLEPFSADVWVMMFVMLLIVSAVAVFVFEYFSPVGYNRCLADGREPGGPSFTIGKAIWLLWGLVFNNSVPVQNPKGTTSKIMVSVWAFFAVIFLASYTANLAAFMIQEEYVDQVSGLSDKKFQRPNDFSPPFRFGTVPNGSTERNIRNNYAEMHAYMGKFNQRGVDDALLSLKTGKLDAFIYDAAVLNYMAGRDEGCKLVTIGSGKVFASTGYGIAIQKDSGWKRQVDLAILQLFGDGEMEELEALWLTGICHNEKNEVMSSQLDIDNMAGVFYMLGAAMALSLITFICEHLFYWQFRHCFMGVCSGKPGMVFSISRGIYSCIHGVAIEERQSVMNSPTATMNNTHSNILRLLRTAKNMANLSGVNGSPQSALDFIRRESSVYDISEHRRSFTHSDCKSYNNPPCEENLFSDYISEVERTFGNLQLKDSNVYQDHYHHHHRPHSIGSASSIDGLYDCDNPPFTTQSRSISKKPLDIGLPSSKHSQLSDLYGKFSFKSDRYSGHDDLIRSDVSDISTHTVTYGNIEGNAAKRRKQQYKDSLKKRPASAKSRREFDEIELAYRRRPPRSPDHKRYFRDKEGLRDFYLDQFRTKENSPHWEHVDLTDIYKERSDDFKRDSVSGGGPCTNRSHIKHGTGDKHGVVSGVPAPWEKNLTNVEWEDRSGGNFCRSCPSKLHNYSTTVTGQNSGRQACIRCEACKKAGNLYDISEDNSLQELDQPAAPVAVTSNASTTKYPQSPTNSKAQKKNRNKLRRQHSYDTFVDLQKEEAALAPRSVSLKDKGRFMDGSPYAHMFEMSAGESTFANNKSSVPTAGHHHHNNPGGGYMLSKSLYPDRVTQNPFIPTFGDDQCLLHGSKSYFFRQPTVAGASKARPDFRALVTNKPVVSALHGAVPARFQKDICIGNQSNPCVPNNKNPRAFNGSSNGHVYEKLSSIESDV

NMDA NR1/NR2B receptor (Homo sapiens (Human), UniProt Q13224), sequence (Q13224 27-1484, other chains not shown): as above
Nav1.6 channel, sequence (Q9UQD0 whole entry): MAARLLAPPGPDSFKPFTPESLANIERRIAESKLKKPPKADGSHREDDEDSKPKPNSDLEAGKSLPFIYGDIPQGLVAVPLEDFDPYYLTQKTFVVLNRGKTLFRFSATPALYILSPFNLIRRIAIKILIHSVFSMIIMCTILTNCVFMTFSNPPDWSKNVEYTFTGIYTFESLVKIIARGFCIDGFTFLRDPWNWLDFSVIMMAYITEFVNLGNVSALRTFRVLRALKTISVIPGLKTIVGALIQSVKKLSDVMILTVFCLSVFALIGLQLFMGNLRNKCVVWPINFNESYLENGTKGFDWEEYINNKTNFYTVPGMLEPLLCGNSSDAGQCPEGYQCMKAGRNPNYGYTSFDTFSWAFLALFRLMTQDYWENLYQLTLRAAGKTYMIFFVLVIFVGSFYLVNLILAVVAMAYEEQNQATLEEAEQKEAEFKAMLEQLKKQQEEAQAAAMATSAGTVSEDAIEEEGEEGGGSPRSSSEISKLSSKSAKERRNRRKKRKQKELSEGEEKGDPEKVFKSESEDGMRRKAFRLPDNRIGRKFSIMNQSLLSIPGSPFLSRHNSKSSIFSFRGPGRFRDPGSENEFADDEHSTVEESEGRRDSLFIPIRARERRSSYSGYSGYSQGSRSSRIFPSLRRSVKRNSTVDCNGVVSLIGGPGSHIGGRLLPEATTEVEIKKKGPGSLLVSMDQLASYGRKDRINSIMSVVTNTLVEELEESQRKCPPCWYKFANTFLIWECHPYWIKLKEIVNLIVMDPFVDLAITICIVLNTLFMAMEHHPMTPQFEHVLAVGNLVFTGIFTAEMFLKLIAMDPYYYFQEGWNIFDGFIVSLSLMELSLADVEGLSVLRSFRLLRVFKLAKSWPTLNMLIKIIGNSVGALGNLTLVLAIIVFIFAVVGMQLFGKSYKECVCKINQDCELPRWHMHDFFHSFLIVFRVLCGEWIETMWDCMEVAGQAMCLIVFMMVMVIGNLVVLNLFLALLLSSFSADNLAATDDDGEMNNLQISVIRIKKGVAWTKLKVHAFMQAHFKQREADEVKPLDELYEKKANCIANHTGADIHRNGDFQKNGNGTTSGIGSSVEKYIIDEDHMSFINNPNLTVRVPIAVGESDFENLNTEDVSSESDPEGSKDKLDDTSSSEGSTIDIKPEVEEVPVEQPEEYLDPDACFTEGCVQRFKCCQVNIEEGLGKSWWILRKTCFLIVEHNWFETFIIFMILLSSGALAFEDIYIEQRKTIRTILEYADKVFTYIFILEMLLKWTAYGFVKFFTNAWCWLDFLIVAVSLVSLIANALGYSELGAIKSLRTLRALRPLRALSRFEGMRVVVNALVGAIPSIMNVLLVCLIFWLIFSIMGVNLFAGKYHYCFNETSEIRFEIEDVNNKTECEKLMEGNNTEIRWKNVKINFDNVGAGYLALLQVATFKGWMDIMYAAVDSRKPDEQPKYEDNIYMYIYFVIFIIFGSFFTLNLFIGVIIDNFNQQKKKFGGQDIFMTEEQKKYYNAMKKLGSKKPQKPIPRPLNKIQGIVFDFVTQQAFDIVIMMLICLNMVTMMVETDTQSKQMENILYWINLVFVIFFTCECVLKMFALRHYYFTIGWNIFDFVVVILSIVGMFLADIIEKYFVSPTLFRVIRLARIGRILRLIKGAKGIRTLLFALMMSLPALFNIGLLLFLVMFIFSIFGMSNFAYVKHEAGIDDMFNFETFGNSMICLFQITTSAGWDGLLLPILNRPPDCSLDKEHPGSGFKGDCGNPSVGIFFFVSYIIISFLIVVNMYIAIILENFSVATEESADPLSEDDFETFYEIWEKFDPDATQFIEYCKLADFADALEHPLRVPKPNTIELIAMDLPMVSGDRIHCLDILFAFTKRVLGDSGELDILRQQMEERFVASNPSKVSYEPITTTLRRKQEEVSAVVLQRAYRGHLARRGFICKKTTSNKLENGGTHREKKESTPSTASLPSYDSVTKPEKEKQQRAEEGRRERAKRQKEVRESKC

For `CNC(=O)[C@@H]1CN(Cc2cnc(Oc3ccccc3)nc2)CCO1` [Example 33], the half-maximal inhibitory concentration (IC50) at NMDA NR1/NR2B receptor [1] was found to be 509 nM.

Consider `CNC(=O)[C@@H]1CN(Cc2cnc(Oc3c(F)cccc3F)nc2)CCO1` [Example 34], for which, on NMDA NR1/NR2B receptor [1], the half-inhibitory concentration (IC50) worked out at 362 nM.

For `CNC(=O)[C@@H]1CN(Cc2cnc(Oc3c(C)cccc3F)nc2)CCO1` [Example 35], the IC50 on NMDA NR1/NR2B receptor [1] was 933 nM.

As to `CCNC(=O)C1CN(Cc2cccc(Oc3ccccc3)c2)CCO1` (stereo not drawn) [Example 100, reference compound], on Nav1.6 channel, the inhibition at 1 µM came out at 2.2%, the “Normalized % inhibition at 5 μM” value was 37.8% and the inhibition at 5 µM was found to be 37.8%. Further, the concentration for half-maximal inhibition (IC50) on NMDA NR1/NR2B receptor [2] was above 8890 nM.

Regarding `O=C(NCc1ccccn1)C1CN(Cc2cccc(Oc3ccccc3)c2)CCO1` (stereo not drawn) [Example 105, reference compound], at Nav1.6 channel, the inhibition at 1 µM worked out at 18.2%, the “Normalized % inhibition at 5 μM” value was 68% and the inhibition at 5 µM came out at 68%. At NMDA NR1/NR2B receptor [2], the IC50 is above 9260 nM.

As to `O=C(C1CN(Cc2cccc(Oc3ccccc3)c2)CCO1)N1CCOCC1` (stereo not drawn) [Example 106, reference compound], on Nav1.6 channel, the inhibition at 1 µM is -0.7%, the “Normalized % inhibition at 5 μM” value is recorded as 14% and the inhibition at 5 µM was found to be 14%. The IC50 at NMDA NR1/NR2B receptor [2] is above 9260 nM.

`CCN(CC)CC(=O)Nc1c(C)cccc1C` [Lidocaine, reference compound]: the “inhibition of evoked Nav1.6 currents (in words)” value on Nav1.6 channel (assay control, 30 and 1000 μM) was “inhibited evoked currents in a concentration and use dependent manner”. Besides, the inhibition at 1000 µM on Nav1.6 channel (read-out: maximum inhibition at P1 (not normalized)) fell in the range of 46.4 to 47.2%.

Regarding `CCCCNc1ccc(C(=O)OCCN(C)C)cc1` [Tetracaine, reference compound], the “state-dependent inhibition of Nav1.6 (in words)” value at Nav1.6 channel (depolarized vs hyperpolarized potential) is “much stronger at depolarized potentials than at hyperpolarized potential”.

What is called IC50 is the concentration that inhibits the measured activity by half. As usually defined, the inhibition is the drop in the measured response relative to a control, in per cent.
